# From patent US20080112967A1, “Process for Refining Ganoderma Spore Polysacchoride” (NANJING ZHONGKE GROUP CORP., LTD., priority 2006, published 2008)
# Tests used:
# [1] = tested on: mouse transplantation tumor Heps; assay: inhibitory action of No. 1, oral pour stomach administration, on mouse transplantation tumor Heps; conditions: masculine reference, dosage 30 mg/kg, once a day, 7 times
# Procedure: (§1) 1.1 The test medicine: the reference Ganoderma spore polysaccharide (it is named No. 1), it is produced by the method disclosed in the CN1483743, the specific steps is: add Ganoderma spore powder into distilled water, the added amount can shape the Ganoderma spore, shake it up, pelletize, dry in the air, use CO2 supercritical extraction method to remove fat, weigh 10 kg Ganoderma spore which is removed fat, add it into the abstraction pot, add 150 Kg water, soak it for 2 h, heat to boil, keep reflux for 4 h, centrifuge the extracting solution, condense the filtrate to 5 Kg, add three times 95% ethanol, lay it 24 h, filter the polysaccharide precipitation, dry the precipitation so as to obtain the Ganoderma spore polysaccharide.
# (§2) 1.2 Animal:ICR mouse, 18-22 g, half male and half female, the mouses is provided by China drug section university animal laboratory. The number of certificate of conformity is: SCXK (SU)2002-0011. The feedstuff is diet pellet, it is provided by China drug section university animal laboratory. Breeding condition: air conditioning room, Temperature 18-24° C., Relative humidity: 70%.
# (§3) 1.3 Masculine Drug: endoxan (CTX), HENGRUI MEDICINE CO LTD JIANG. Specification: 200 mg/bottle, Batch Number: 06060121.
# 3.1.1 administration route: oral pour stomach (ip)
# 3.1.2 administration period: Inoculate Heps entity type by transplantation tumor methodology, after inoculating 24 h, administrate to the mouse and ip administrate, once a day, administrate for 7 times, at the next day when the administration is stopped, kill the mouse.
# (§4) 3.1.3 dosage, there are four groups:
# (§5) blank reference group(normal saline)
# (§6) 3.1.4 experimental method: Take 40 above-mentioned mouses (Heps entity type inoculated by transplantation tumor methodology), after the mouse is inoculated, weigh the mouse, and divide them into 4 groups, there is 10 mouses in every groups, half male and half female, blank reference group and CTX group are negative and masculine reference group. After inoculating 24 h, administrate to the mouse and ip administrate, once a day, administrate for 7 times, at the next day when the administration is stopped, weigh the mouses and kill them, weigh the weight of tumor, statisticaly treat the obtained data (t verify).
# [2] = tested on: mouse transplantation tumor S180; assay: inhibitory action of No. 1, oral pour stomach administration, on mouse transplantation tumor S180; conditions: masculine reference, dosage 30 mg/kg, once a day, 7 times
# Procedure: as §1, §2, §3
# 3.2.1 administration route: oral pour stomach […]
# 3.2.2 administration period: Inoculate S180 entity type by transplantation tumor methodology, after inoculating 24 h, administrate to the mouse and ip administrate, once a day, administrate for 7 times, at the next day when the administration is stopped, kill the mouse.
# (§7) 3.2.3 dosage, there are four groups:
# as §5
# as §6, with “3.2.4” for “3.1.4”, “(S180” for “(Heps”, “t verify.” for “(t verify).”
# [3] = tested on: mouse transplantation tumor Heps; assay: inhibitory action of No. 2, intravenous injection administration, on mouse transplantation tumor Heps; conditions: masculine reference, dosage 30 mg/kg, once on alternate days, 4 times
# From the text: (§8) 1.1 The test medicine: the Ganoderma spore polysaccharide of the present invention (produced by the method of the present invention, it is named No.2.).
# as §2, with “Animal: ICR” for “Animal:ICR”, “ertificate” for “certificate”, “SCXK(SU)2002-0011.” for “SCXK (SU)2002-0011.”
# (§9) 1.3 Masculine drug: endoxan (CTX), HENGRUI MEDICINE CO LTD JIANG.
# 3.1 the inhibitory action of the No. 2 intravenous injection (iv) administration to the mouse transplantation tumor Heps.
# 3.1.1 administration route: intravenous injection (iv)
# 3.1.2 administration period: Inoculate Heps entity type by transplantation tumor methodology, after inoculating 24 h, administrate to the mouse and ip administrate, once on alternate days, administrate for 4 times, at the next day when the administration is stopped, kill the mouse.
# as §4
# (§10) blank reference group (normal saline)
# as §6, with “CTX: 20 mg/kg 3.1.4” for “3.1.4”, “on alternate days,” for “a day,”, “4” for “7”, “statistically” for “statisticaly”
# [4] = tested on: mouse transplantation tumor S180; assay: inhibitory action of No. 2, intravenous injection administration, on mouse transplantation tumor S180; conditions: masculine reference, dosage 30 mg/kg, once on alternate days, 4 times
# From the text: as §8
# as §2, with “Animal: ICR” for “Animal:ICR”, “ertificate” for “certificate”, “SCXK(SU)2002-0011.” for “SCXK (SU)2002-0011.”
# as §9
# 3.2.1 administration route: intravenous injection (iv)
# 3.2.2 administration period: Inoculate S180 entity type by transplantation tumor methodology, after inoculating 24 h, administrate to the mouse and ip administrate, once on alternate days, administrate for 4 times, at the next day when the administration is stopped, kill the mouse.
# as §7, §10
# as §6, with “3.2.4” for “3.1.4”, “(S180” for “(Heps”, “on alternate days,” for “a day,”, “4” for “7”, “t verify.” for “(t verify).”
smiles,measurement,setting,value
"O=P1(N(CCCl)CCCl)NCCCO1 (stereo not shown) [CTX, endoxan]",The rate of inhibiting tumor (%),[1],64.60%
same,Weight(g) After anministration,"[1]; X ± SD, n = 10",24.3 ± 2.41 g
same,Weight(g) Before anministration,"[1]; X ± SD, n = 10",20.1 ± 1.30 g
same,the weight of tumor,"[1]; X ± SD, n = 10",0.43 ± 0.15 g
same,The rate of inhibiting tumor (%),[2],65.81%
same,Weight(g) After anministration,"[2]; X ± SD, n = 10",24.3 ± 1.68 g
same,Weight(g) Before anministration,"[2]; X ± SD, n = 10",20.1 ± 0.94 g
same,the weight of tumor,"[2]; X ± SD, n = 10",0.51 ± 0.18 g
same,The rate of inhibiting tumor (%),[3],64.60%
same,Weight(g) After anministration,"[3]; X ± SD, n = 10",24.3 ± 2.41 g
same,Weight(g) Before anministration,"[3]; X ± SD, n = 10",20.1 ± 1.30 g
same,the weight of tumor,"[3]; X ± SD, n = 10",0.43 ± 0.15 g
same,The rate of inhibiting tumor (%),[4],65.81%
same,Weight(g) After anministration,"[4]; X ± SD, n = 10",24.3 ± 1.68 g
same,Weight(g) Before anministration,"[4]; X ± SD, n = 10",20.1 ± 0.94 g
same,the weight of tumor,"[4]; X ± SD, n = 10",0.51 ± 0.18 g
